Data as given in patent US20030162824A1, “Methods of treating or preventing a cardiovascular condition using a cyclooxygenase-1 inhibitor” (priority 2001, published 2003).
“And” between values parts separate entries of the source, which are not always exact repeats. Equal entries are not always repeated.

Experiments:
hCox-2 = molecular target: T1, hCox-2 (Homo sapiens, UniProt P35354); assay: Evaluation of COX-2 activity in vitro (recombinant enzyme, PGE2 ELISA); assay type: biochemical
T1 construct: A 2.0 kb fragment containing the coding region of either human or murine COX-1 or human or murine COX-2; made in house; host or cells: SF9 insect cells (baculovirus, pVL1393)
T1 sequence (P35354 18-604): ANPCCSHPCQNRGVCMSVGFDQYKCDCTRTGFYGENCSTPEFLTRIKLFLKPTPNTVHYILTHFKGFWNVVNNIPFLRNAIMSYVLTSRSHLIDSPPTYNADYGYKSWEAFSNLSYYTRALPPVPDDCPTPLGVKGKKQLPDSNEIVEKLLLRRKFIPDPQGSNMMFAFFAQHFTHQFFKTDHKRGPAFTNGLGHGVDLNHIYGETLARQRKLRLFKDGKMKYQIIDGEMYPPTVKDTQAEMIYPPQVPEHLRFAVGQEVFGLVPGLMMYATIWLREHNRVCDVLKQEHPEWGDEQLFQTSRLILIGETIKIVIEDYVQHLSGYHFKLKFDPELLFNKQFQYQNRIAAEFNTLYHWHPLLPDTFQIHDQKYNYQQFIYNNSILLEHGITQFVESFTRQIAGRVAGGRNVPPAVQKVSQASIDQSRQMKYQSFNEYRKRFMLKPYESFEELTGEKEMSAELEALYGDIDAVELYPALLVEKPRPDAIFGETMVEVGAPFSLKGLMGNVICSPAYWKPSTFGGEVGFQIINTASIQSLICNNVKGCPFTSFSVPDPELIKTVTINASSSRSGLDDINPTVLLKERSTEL
Method: (§1) Recombinant baculoviruses were isolated by transfecting 4 μg of baculovirus transfer vector DNA into SF9 insect cells (2×10^8) along with 200 ng of linearized baculovirus plasmid DNA by the calcium phosphate method.
(§2) Recombinant viruses were purified by three rounds of plaque purification and high titer (10^7-10^8 pfu/mL) stocks of virus were prepared. For large scale production, SF9 insect cells were infected in 10 liter fermentors (0.5×10^6/mL) with the recombinant baculovirus stock such that the multiplicity of infection was 0.1. […] The homogenate was centrifuged at 10,000×G for 30 minutes, and the resultant supernatant was stored at −80° C. before being assayed for COX activity.
(§3) COX activity was assayed as PGE2 formed/μg protein/time using an ELISA to detect the prostaglandin released. CHAPS-solubilized insect cell membranes containing the appropriate COX enzyme were incubated in a potassium phosphate buffer (50 mM, pH 8.0) containing epinephrine, phenol, and heme with the addition of arachidonic acid (10 μM). Compounds were pre-incubated with the enzyme for 10-20 minutes prior to the addition of arachidonic acid. […] The PGE2 formed was measured by standard ELISA technology (Cayman Chemical).

hCox-1 = molecular target: T2, hCox-1 (Homo sapiens, UniProt P23219); assay: Evaluation of COX-1 activity in vitro (recombinant enzyme, PGE2 ELISA); assay type: biochemical
T2 construct: A 2.0 kb fragment containing the coding region of either human or murine COX-1 or human or murine COX-2; made in house; host or cells: SF9 insect cells (baculovirus, pVL1393)
T2 sequence (P23219 24-599): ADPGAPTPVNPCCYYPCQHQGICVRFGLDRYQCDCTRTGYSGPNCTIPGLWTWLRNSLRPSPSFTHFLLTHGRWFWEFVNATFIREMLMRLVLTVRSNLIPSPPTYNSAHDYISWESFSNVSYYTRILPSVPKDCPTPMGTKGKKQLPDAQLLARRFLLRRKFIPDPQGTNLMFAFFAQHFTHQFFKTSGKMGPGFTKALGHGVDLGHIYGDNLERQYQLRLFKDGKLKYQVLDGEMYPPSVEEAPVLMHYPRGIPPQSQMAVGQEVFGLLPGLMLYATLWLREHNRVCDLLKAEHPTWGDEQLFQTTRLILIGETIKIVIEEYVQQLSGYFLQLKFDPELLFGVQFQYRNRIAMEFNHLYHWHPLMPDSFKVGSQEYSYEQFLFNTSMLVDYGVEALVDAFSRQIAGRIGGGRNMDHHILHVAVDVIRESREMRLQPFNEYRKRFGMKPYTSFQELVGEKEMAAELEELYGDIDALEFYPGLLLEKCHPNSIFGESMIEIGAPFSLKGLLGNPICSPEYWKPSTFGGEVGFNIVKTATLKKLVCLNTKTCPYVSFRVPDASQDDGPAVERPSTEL
Method: as §1, §2, §3

[1] = system: apoE knockout mice fed a 1% cholesterol diet; assay: Effect of cyclooxygenase inhibition on the development of atherosclerosis in cholesterol-fed apoE knockout mice; details: for extent of lesion development: aortae after 10 weeks, vehicle 25.8±4.5%
Method: The role of cyclooxygenase-1 and cyclooxygenase-2 on the development of atherosclerosis in apoE knockout mice fed a 1% cholesterol diet was evaluated. […] ApoE^−/− fed a normal chow (n=20) and wildtype littermates (n=40) were used as controls for the study. Twenty-four hour urine samples were collected and the aortae harvested following 10 weeks of treatment.

[2] = 10 weeks, COX-1 inhibitor 15 mg/kg daily, COX-2 inhibitor 6 mg/kg
[3] = COX-1 inhibitor 15 mg/kg daily, COX-2 inhibitor 6 mg/kg

COc1ccc(-c2cc(C(F)(F)F)nn2-c2ccc(C)cc2)cc1C [Compound 31]
IC50 (hCox-2): 67.1 µM
IC50 (hCox-1): 0.287 µM

FC(F)(F)c1cc(-c2cccc(Br)c2)n(-c2ccccc2)n1 [Compound 13]
IC50 (hCox-2): > 100 µM
IC50 (hCox-1): 3.3 µM

FC(F)(F)c1cc(-c2ccc(I)cc2)n(-c2ccccc2)n1 [Compound 15, 5-(4-iodophenyl)-1-phenyl-3-(trifluoromethyl)pyrazole]
IC50 (hCox-2): > 100 µM
IC50 (hCox-1): 0.65 µM

COC(=O)c1nn(-c2ccc(OC)cc2)c2c1CCc1cc(OC)ccc1-2 [Compound 18]
IC50 (hCox-2): > 100 µM
IC50 (hCox-1): 0.442 µM

FC(F)(F)c1cc(-c2ccccc2)n(-c2ccc(Cl)cc2)n1 [Compound 7, 1-(4-chlorophenyl)-5-phenyl-3-(trifluoromethyl)pyrazole]
IC50 (hCox-2): > 1000 µM
IC50 (hCox-1): 0.085 µM

COc1ccc(-n2nc(CCC(=O)N(C)O)cc2-c2ccc(Cl)cc2)cc1 [Compound 20]
IC50 (hCox-2): > 1000 µM
IC50 (hCox-1): 0.027 µM

Cc1ccc(-c2cc(C(F)(F)F)nn2-c2ccc(C(F)(F)F)cc2)cc1 [Compound 30]
IC50 (hCox-2): > 100 µM
IC50 (hCox-1): 0.108 µM

O=[N+]([O-])c1ccc(-n2nc(C(F)(F)F)cc2-c2ccc(Cl)cc2)cc1 [Compound 22]
IC50 (hCox-2): > 100 µM
IC50 (hCox-1): 0.81 µM

COc1ccc2c(c1)CSc1c(C(F)(F)F)nn(-c3ccc(Cl)cc3)c1-2 [Compound 27]
IC50 (hCox-2): > 100 µM
IC50 (hCox-1): 0.141 µM

COc1ccc(-n2nc(C(F)F)cc2-c2ccc(Cl)cc2)cc1 [Compound 2, 5-(4-chlorophenyl)-3-(difluoromethyl)-1-(4-methoxyphenyl)pyrazole]
IC50 (hCox-2): > 100 µM
IC50 (hCox-1): < 0.137 µM and 0.021 µM

COC(=O)c1cc(-c2ccc(Cl)cc2)n(-c2ccc(OC)cc2)n1 [Compound 3, 5-(4-chlorophenyl)-3-(methoxycarbonyl)-1-(4-methoxyphenyl)pyrazole]
IC50 (hCox-2): > 100 µM
IC50 (hCox-1): 0.284 µM

COc1ccc(-c2cc(C(F)F)nn2-c2ccc(Cl)cc2)cc1F [Compound 28]
IC50 (hCox-2): 23 µM
IC50 (hCox-1): 0.643 µM

COc1ccc(-n2nc(C(=O)Nc3ccc(N=[N+]=[N-])cc3)cc2-c2ccc(Cl)cc2)cc1 [Compound 32]
IC50 (hCox-2): ≥ 1000 µM
IC50 (hCox-1): 0.012 µM

O=[N+]([O-])c1ccc(-c2cc(C(F)F)nn2-c2ccc(F)cc2)cc1 [Compound 21]
IC50 (hCox-2): 22.8 µM
IC50 (hCox-1): 0.647 µM

COc1ccc(-n2nc(C(F)F)cc2-c2ccc(SC)cc2)cc1 [Compound 19]
IC50 (hCox-2): > 100 µM
IC50 (hCox-1): 0.126 µM

COc1ccc(-n2nc(C(F)(F)F)cc2-c2ccc(Cl)cc2)cc1
CD41 staining of lesions (platelet deposition) [1, 2]: markedly attenuated

O=[N+]([O-])c1ccc(-n2nc(C(F)F)cc2-c2ccc(Cl)cc2)cc1 [Compound 23]
IC50 (hCox-2): > 100 µM
IC50 (hCox-1): 0.676 µM

COc1ccc(-n2nc(CO[N+](=O)[O-])cc2-c2ccc(Cl)cc2)cc1 [Compound 29]
IC50 (hCox-1): 0.242 µM

COC(=O)c1ccc(-n2nc(C(F)(F)F)cc2-c2ccc(C)cc2)cc1 [Compound 26]
IC50 (hCox-2): > 100 µM
IC50 (hCox-1): 0.31 µM

Cc1ccc(-c2cc(C(F)(F)F)nn2-c2ccc(Br)cc2)cc1 [Compound 16, 1-(4-bromophenyl)-5-(4-methylphenyl)-3-(trifluoromethyl)pyrazole]
IC50 (hCox-2): 0.424 µM
IC50 (hCox-1): < 0.137 µM

COc1ccc(-n2nc(C(F)(F)F)cc2-c2ccc(Cl)cc2)cc1 [Compound 1]
Urinary TXB2 excretion ([1]; 24 h urine after 10 weeks of treatment, COX-1 inhibitor 15 mg/kg daily, vehicle 20.7±4.02): 2.63 ± 0.59 ng/mL
extent of lesion development [1, 3]: 4.6±0.4%

COc1ccc(-n2nc(C(=O)O)cc2-c2ccc(Cl)cc2)cc1 [Compound 4, 3-carboxy-5-(4-chlorophenyl)-1-(4-methoxyphenyl)pyrazole]
IC50 (hCox-2): > 100 µM
IC50 (hCox-1): 55.7 µM

FC(F)(F)c1cc(-c2ccc(Br)cc2)n(-c2ccccc2)n1 [Compound 12, 5-(4-bromophenyl)-1-phenyl-3-(trifluoromethyl)pyrazole]
IC50 (hCox-2): > 500 µM
IC50 (hCox-1): 0.435 µM

NS(=O)(=O)c1ccc(-n2nc(C(=O)O)cc2-c2ccccc2)cc1 [Compound 24]
IC50 (hCox-1): ≤ 0.137 µM

NS(=O)(=O)c1ccc(-n2nc(C(F)(F)F)cc2-c2ccc(Cl)cc2)cc1 [selective COX-2 inhibitor, 4-[5-(4-chlorophenyl)-3-(trifluoromethyl)-1H-pyrazol-1-yl]benzenesulfonamide, reference compound]
CD41 staining of lesions (platelet deposition) [1, 2]: no effect
effect on TXB2 excretion (in words) ([1]; 10 weeks, COX-2 inhibitor 6 mg/kg): no effect
extent of lesion development [1, 3]: 27.9±1.8%

FC(F)(F)c1cc(-c2ccc(Cl)cc2)n(-c2ccccc2)n1 [Compound 9, 5-(4-chlorophenyl)-1-phenyl-3-(trifluoromethyl)pyrazole]
IC50 (hCox-2): > 1000 µM
IC50 (hCox-1): 0.123 µM
